Assay [1] concerns the target T1, CRTH2 receptor (Homo sapiens, UniProt Q9Y5Y4).
T1 construct: expressed in transfected cells; host or cells: Human embryonic kidney (HEK) cells, used as membranes
T1 sequence (Q9Y5Y4 1-395): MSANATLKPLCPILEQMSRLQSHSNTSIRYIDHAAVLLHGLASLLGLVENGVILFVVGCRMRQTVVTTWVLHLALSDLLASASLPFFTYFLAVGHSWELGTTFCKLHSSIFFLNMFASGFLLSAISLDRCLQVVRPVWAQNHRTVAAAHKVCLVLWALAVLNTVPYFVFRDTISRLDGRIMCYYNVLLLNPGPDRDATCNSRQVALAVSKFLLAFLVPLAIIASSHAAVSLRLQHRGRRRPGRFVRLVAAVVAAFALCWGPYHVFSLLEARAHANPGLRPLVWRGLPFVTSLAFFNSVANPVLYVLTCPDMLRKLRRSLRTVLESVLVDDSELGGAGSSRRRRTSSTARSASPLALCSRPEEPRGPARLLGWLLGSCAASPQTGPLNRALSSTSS
Briefly: CRTH2 radioligand binding assay ([3H]-PGD2 displacement, SPA). The settings on record: HEK cell membranes expressing the CRTH2 receptor; 1 nM [3H]-PGD2; Ki from IC50 by Cheng-Prusoff. As for the experimental part: Compounds of the invention were tested using the following biological test method to determine their ability to displace PGD2 from the CRTH2 receptor.
CRTH2 Radioligand Binding Assay
The receptor binding assay is performed in a final volume of 200 μL binding buffer [10 mM BES (pH 7.4), 1 mM EDTA, 10 mM manganese chloride, 0.01% BSA] and 1 nM [^3H]-PGD2 (Amersham Biosciences UK Ltd). Ligands are added in assay buffer containing a constant amount of DMSO (1% by volume). Total binding is determined using 1% by volume of DMSO in assay buffer and non-specific binding is determined using 10 μM of unlabeled PGD2 (Sigma). Human embryonic kidney (HEK) cell membranes (3.5 μg) expressing the CRTH2 receptor are incubated with 1.5 mg wheatgerm agglutinin SPA beads and 1 nM [^3H]-PGD2 (Amersham Biosciences UK Ltd) and the mixture incubated for 3 hours at room temperature. Bound [^3H]-PGD2 is detected using a Microbeta TRILUX liquid scintillation counter (Perkin Elmer). Compound IC50 value is determined using a 6-point dose response curve in duplicate with a semi-log compound dilution series. IC50 calculations are performed using Excel and XLfit (Microsoft), and this value is used to determine a Ki value for the test compound using the Cheng-Prusoff equation.

Assay [2] concerns the target T1, CRTH2 receptor. Briefly: GTPγS functional assay. The conditions noted are these: HEK cell membranes expressing the CRTH2 receptor; PGD2 30 nM; [35S]-GTPγS; Ki from IC50 by Cheng-Prusoff. The format is biochemical. The protocol:
The GTP[…]S Assay is performed in a final volume of […] assay buffer (20 mM HEPES pH 7.4, 10 mM MgCl2, 100 mM NaCl, 10 μg/mL saponin). DMSO concentrations are kept constant at 1% by volume. Human embryonic kidney (HEK) cell membranes (3.5 μg) expressing the CRTH2 receptor are incubated with the compounds for 15 min at 30° C. prior to addition of PGD2 (30 nM final concentration) and GTP (10 μM final concentration). The assay solutions are then incubated for 30 minutes at 30° C., followed by addition of [^35S]-GTPγS (0.1 nM final concentration). The assay plate is than shaken and incubated for 5 minutes at 30° C. Finally, SPA beads (Amersham Biosciences, UK) are added to a final concentration of 1.5 mg/well and the plate shaken and incubated for 30 minute at 30° C. The sealed plate is centrifuged at 1000 g for 10 mins at 30° C. and the bound [^35S]-GTPγS is detected on Microbeta scintillation counter (Perkin Elmer). Compound IC50 value is determined using a 6-point dose response curve in duplicate with a semi-log compound dilution series. IC50 calculations are performed using Excel and XLfit (Microsoft), and this value is used to determine a Ki value for the test compound using the Cheng-Prusoff equation.

On to `Cc1c(Cc2sccc2S(=O)(=O)c2ccc(F)cc2)c2cc(F)ccc2n1CC(=O)O` [Example 1, {5-fluoro-3-[3-(4-fluorobenzenesulfonyl)thiophen-2-ylmethyl]-2-methylindol-1-yl}acetic acid], for which the inhibition constant (Ki) (in general, the equilibrium dissociation constant of an inhibitor or competing ligand from its target) was 1.5 nM at CRTH2 receptor [1] and below 10 nM at CRTH2 receptor [2]. Consider `Cc1c(Cc2sccc2S(=O)(=O)c2ccccn2)c2cc(F)ccc2n1CC(=O)O` [Example 16, {5-fluoro-2-methyl-3-[3-(pyridine-2-sulfonyl)thiophen-2-ylmethyl]indol-1-yl}acetic acid], for which the Ki on CRTH2 receptor [1] is 2.4 nM; at CRTH2 receptor [2], below 10 nM. `Cc1c(Cc2ccccc2S(=O)(=O)N(C)c2ccccc2)c2cc(F)ccc2n1CC(=O)O` [Example 21, {5-fluoro-2-methyl-3-[2-(methylphenylsulfamoyl)benzyl]indol-1-yl}acetic acid]: the affinity at CRTH2 receptor [1] corresponds to a Ki of 0.6 nM. In the case of `Cc1c(Cc2cccnc2S(=O)(=O)c2ccccc2)c2cc(Cl)ccc2n1CC(=O)O` [Example 26, {5-chloro-3-[2-(benzenesulfonyl)pyridine-3-ylmethyl]-2-methylindol-1-yl}acetic acid], the Ki on CRTH2 receptor [1] is 4.5 nM; on CRTH2 receptor [2] it was below 10 nM.
